Data reported in BindingDB's records for doi:10.1016/s0960-894x(01)00654-0 (Merck Research Laboratories, 2001).

Experiments:
[1] = molecular target: T1, C-C chemokine receptor type 5 (Homo sapiens, UniProt P51681); assay: ChEBML_39507
Text: (§1) Binding affinity against C-C chemokine receptor type 5 stably expressed in Chinese hamster ovary (CHO) cells using [125I]-MIP-1 alpha as the radioligand

[2] = molecular target: T1, C-C chemokine receptor type 5; assay: as §1

T1 sequence (P51681 whole entry): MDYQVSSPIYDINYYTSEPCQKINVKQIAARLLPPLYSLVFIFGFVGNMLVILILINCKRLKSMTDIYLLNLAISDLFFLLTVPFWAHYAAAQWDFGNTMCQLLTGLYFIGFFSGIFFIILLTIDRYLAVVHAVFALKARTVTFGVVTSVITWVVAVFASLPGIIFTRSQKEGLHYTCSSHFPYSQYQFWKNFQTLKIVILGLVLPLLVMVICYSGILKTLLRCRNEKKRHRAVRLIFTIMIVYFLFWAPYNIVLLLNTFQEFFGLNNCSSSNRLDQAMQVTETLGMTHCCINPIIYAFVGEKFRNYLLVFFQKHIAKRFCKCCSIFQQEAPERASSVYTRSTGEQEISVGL

IC50 [1]: 25 nM | IC50 [2]: 25 nM
Compound: O=c1[nH]c(Cc2c[nH]c3ccccc23)c(O)n1CC(CCN1CCC(c2ccccc2)CC1)c1cccc(Cl)c1 [(R)-3-[2-(3-Chloro-phenyl)-4-(4-phenyl-piperidin-1-yl)-butyl]-5-(1H-indol-3-ylmethyl)-imidazolidine-2,4-dione]
